Source: US10369159B2, “Estrogen receptor β partial agonist having estrogen receptor α inhibitory effect, and gynecological disease therapeutic agent using same” (NOBELPHARMA CO., LTD., priority 2015, dated 2019)

Key:
Type in all cases: in vivo, rat
Era = test: Gene expression analysis of endometrial implants (TaqMan), Era; conditions: for Expression level Era: endometrial implants, corrected by GAPDH, n 6, E2 control 44.2 ± 18.9
Procedure: (§1) Total RNA was extracted […] the rat-derived endometrial graft (27 specimens), then quality of the RNA was inspected with a spectrophotometer and bio-analyzer, and then reverse transcription reaction of the RNA was performed, followed by gene expression analysis was performed according to TaqMan method.
(§2) RNA was extracted from the rat uterine horn strips and grafted uterine strip using the RNeasy Fibrous Tissue Mini Kit.
(§3) Concentration of the extracted RNA was measured with a NanaoDrop. Also RIN measurements using a bioanalyzer (6000 nano kits) was carried out. A 6000 pico-kit was used for bioanalyzing of the two samples with low yield (Sample ID: 202, 507).
(§4) cDNA obtained by reverse transcription reaction from 1000 ng/uL of commercially available Rat Tissue Universal Reference Total RNA (Catalog Number PR-UR-100, ZYAGEN Inc.) using SuperScript VILO Master Mix (hereinafter “Standard”) was used as a standard substance.
(§5) Based on the concentration measured with a spectrophotometer, reverse transcription reaction of the specimen with Super Script VILO Master Mix was performed to give 50 ng/uL of cDNA (the following example). As for the samples with low yield, that is Sample ID: 202, 502, 507, the reverse transcription reaction was performed to give 25 ng/uL, 25 ng/uL, and 12.5 ng/uL of cDNA, respectively.
(§6) TaqMan reaction by using Step One Plus Real-Time PCR System was performed with standard 250, 62.5, 15.625, 3.9, 0.98 ng/well or sample 5.0 ng/well. A cycle of reaction, two minutes at 50° C. and 10 minutes at 95° C., followed by 15 seconds at 95° C. and one minute at 60° C., was repeated 40 cycles, then the fluorescence value FAM was measured in real time after the reaction at 60° C. In addition to the target eight genes, GAPDH gene as an internal control gene was measured. All the standards and samples were measured in triplicate.
(§7) From each of the two calibration curves (target gene, GAPDH gene) obtained from the standard, gene expressions level of the target gene and GAPDH gene of the sample was calculated, respectively. Then, the target gene expression level was corrected by the GAPDH gene expression level, the internal control gene. And then, an average gene expression level of the samples in each group was calculated, followed by the average gene expression level of the two groups was used as a standard to compare with each of the other groups.

Erb = test: Gene expression analysis of endometrial implants (TaqMan), Erb; conditions: for Expression level Erb: endometrial implants, corrected by GAPDH, n 6, E2 control 2.37 ± 1.07
Procedure: as §1, §2, §3, §4, §5, §6, §7

PR = test: Gene expression analysis of endometrial implants (TaqMan), PR; conditions: for Expression level PR: endometrial implants, corrected by GAPDH, n 6, E2 control 101.0 ± 40.3
Procedure: as §1, §2, §3, §4, §5, §6, §7

VEGF = test: Gene expression analysis of endometrial implants (TaqMan), VEGF; conditions: for Expression level VEGF: endometrial implants, corrected by GAPDH, n 6, E2 control 1.62 ± 0.43
Procedure: as §1, §2, §3, §4, §5, §6, §7

PEDF = test: Gene expression analysis of endometrial implants (TaqMan), PEDF; conditions: for Expression level PEDF: endometrial implants, corrected by GAPDH, n 6, E2 control 4.51 ± 1.39
Procedure: as §1, §2, §3, §4
Based on the concentration measured with a spectrophotometer, reverse transcription reaction of the specimen with Super Script VILO Master Mix was performed to give 50 ng/uL of cDNA (the following example). […]
as §6
From each of the two calibration curves (target gene, GAPDH gene) obtained from the standard, gene expressions level of the target gene and GAPDH gene of the sample was calculated, respectively. […] And then, an average gene expression level of the samples in each group was calculated, followed by the average gene expression level of the two groups was used as a standard to compare with each of the other groups.

[1] = in comparison with the E2 control group

Structure (SMILES): CCN(CC)Cc1ccc(OCC[C@H]2CC[C@H]3[C@@H]4[C@H](C)Cc5cc(O)ccc5[C@H]4CC[C@]23C)c(OC)c1 [SR16234, (7α)-21-[4-[(diethylamino)methyl]-2-methoxyphenoxy]-7-methyl-19-norpregna-1,3,5(10)-triene-3-ol]
- Expression level Era (Era; 0.1 mg/kg): 39.3 ± 14.3 ng
- Expression level Era (Era; 0.3 mg/kg): 47.6 ± 14.9 ng
- Expression level Era (Era; 1 mg/kg): 33.2 ± 20.7 ng
- Effect on the estrogen receptor gene expression of Era (in words) (Era; [1]): not observed
- Expression level Erb (Erb; 0.1 mg/kg): 4.05 ± 1.88 ng
- Expression level Erb (Erb; 0.3 mg/kg): 3.05 ± 1.02 ng
- Expression level Erb (Erb; 1 mg/kg): 2.08 ± 1.51 ng
- Effect on the estrogen receptor gene expression of Erb (in words) (Erb; [1]): not observed
- Expression level PR (PR; 0.1 mg/kg): 94.6 ± 37.7 ng
- Expression level PR (PR; 0.3 mg/kg): 176.2 ± 81.1 ng
- Expression level PR (PR; 1 mg/kg): 127.8 ± 89.1 ng
- Effect on gene expression of PR (in words) (PR; [1]): slight increase trend
- Expression level VEGF (VEGF; 0.1 mg/kg): 1.44 ± 0.43 ng
- Expression level VEGF (VEGF; 0.3 mg/kg): 1.65 ± 0.40 ng
- Expression level VEGF (VEGF; 1 mg/kg): 1.33 ± 0.57 ng
- Effect on the gene expression of VEGF (in words) (VEGF; [1]): No effect
- Expression level PEDF (PEDF; 0.1 mg/kg): 6.44 ± 1.56 ng
- Expression level PEDF (PEDF; 1 mg/kg): 5.93 ± 3.01 ng
- Effect on the gene expression of PEDF (in words) (PEDF; in comparison with the E2 control group, FIG. 2): increase trend
